Measurements from US20250206732A1, “COMPOUNDS AND METHODS FOR THE TARGETED DEGRADATION OF KRAS” (Arvinas Operations, Inc., priority 2022, published 2025).

Biological target: T1, AsPC-1 HiBiT-KRASG12D (Homo sapiens, UniProt P01116, G12D)
T1 construct: insert the HiBiT tag onto the N-terminus of one or more of the endogenous KRAS alleles; endogenous in cells; host or cells: AsPC-1 (ATCC CRL-1682), CRISPR-Cas9 knock-in clone, one tagged allele
Assay: HiBiT degradation assay (G12D), AsPC-1 HiBiT-KRASG12D cells
Assay type: cell-based
Conditions: 24 hours treatment; for Dmax: ASPC1, AsPC-1 HiBiT-KRASG12D cells, maximum degradation observed; for DC50: AsPC-1 HiBiT-KRASG12D cells, HiBiT luminescence
Method in brief: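 Endogenous KRASG12D levels were measured via an N-terminal HiBiT tag knocked into AsPC-1 cells. Cells received compound titrations for 24 hours, and HiBiT luminescence was detected after a 45-minute lytic reagent incubation at room temperature.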

T1 sequence (P01116 1-188 isoform P01116-2 G12D): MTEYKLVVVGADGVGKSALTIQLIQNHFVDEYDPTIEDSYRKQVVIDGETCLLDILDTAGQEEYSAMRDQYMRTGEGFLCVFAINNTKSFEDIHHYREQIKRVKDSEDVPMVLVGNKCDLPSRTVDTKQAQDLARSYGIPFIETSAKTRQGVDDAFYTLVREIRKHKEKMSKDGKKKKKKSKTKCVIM

Structure (SMILES) | Dmax | DC50
C#Cc1c(F)ccc2cc(O)cc(-c3ncc4c(N5CC6CCC(C5)N6)nc(OC[C@]56CCCN5[C@H](COc5cc([C@H](C(=O)N7C[C@H](O)C[C@H]7C(=O)N[C@@H](C)c7ccc(-c8scnc8C)cc7)C(C)C)on5)CC6)nc4c3F)c12 [Compound 311, (2S,4R)-1-[(2R)-2-[3-[[(3S,8R)-8-[[4-(3,8-diazabicyclo[3.2.1]octan-3-yl)-7-(8-ethynyl-7-fluoro-3-hydroxy-1-naphthyl)-8-fluoro-pyrido[4,3-d]pyrimidin-2-yl]oxymethyl]-1,2,3,5,6,7-hexahydropyrrolizin-3-yl]methoxy]isoxazol-5-yl]-3-methyl-butanoyl]-4-hydroxy-N-[(1S)-1-[4-(4-methylthiazol-5-yl)phenyl]ethyl]pyrrolidine-2-carboxamide] | 80 to 100% | < 600 nM
C#Cc1c(F)ccc2cc(O)cc(-c3ncc4c(N5CC6CCC(C5)N6)nc(OC[C@]56CCCN5[C@H](COc5cc([C@@H](C(=O)N7C[C@H](O)C[C@H]7C(=O)N[C@@H](C)c7ccc(-c8scnc8C)cc7)C(C)C)on5)CC6)nc4c3F)c12 [Compound 312, (2S,4R)-1-[(2S)-2-[3-[[(3S,8R)-8-[[4-(3,8-diazabicyclo[3.2.1]octan-3-yl)-7-(8-ethynyl-7-fluoro-3-hydroxy-1-naphthyl)-8-fluoro-pyrido[4,3-d]pyrimidin-2-yl]oxymethyl]-1,2,3,5,6,7-hexahydropyrrolizin-3-yl]methoxy]isoxazol-5-yl]-3-methyl-butanoyl]-4-hydroxy-N-[(1S)-1-[4-(4-methylthiazol-5-yl)phenyl]ethyl]pyrrolidine-2-carboxamide] | 20 to 60% | 1000 to 3000 nM
C#Cc1c(F)ccc2cc(O)cc(-c3ncc4c(N5CC6CCC(C5)N6)nc(OCCN5CCC(C)(COc6cc([C@H](C(=O)N7C[C@H](O)C[C@H]7C(=O)N[C@@H](C)c7ccc(-c8scnc8C)cc7)C(C)C)on6)CC5)nc4c3F)c12 [Compound 313, (2S,4R)-1-[(2R)-2-{3-[(1-{2-[(4-{3,8-diazabicyclo[3.2.1]octan-3-yl}-7-(8-ethynyl-7-fluoro-3-hydroxynaphthalen-1-yl)-8-fluoropyrido[4,3-d]pyrimidin-2-yl)oxy]ethyl}-4-methylpiperidin-4-yl)methoxy]-1,2-oxazol-5-yl}-3-methylbutanoyl]-4-hydroxy-N-[(1S)-1-[4-(4-methyl-1,3-thiazol-5-yl)phenyl]ethyl]pyrrolidine-2-carboxamide] | 80 to 100% | < 600 nM
C#Cc1c(F)ccc2cc(O)cc(-c3ncc4c(N5CC6CCC(C5)N6)nc(OC[C@@]56CCCN5[C@H](COc5cc([C@H](C(=O)N7C[C@H](O)C[C@H]7C(=O)N[C@@H](C)c7ccc(-c8scnc8C)cc7)C(C)C)on5)CC6)nc4c3F)c12 [Compound 314, (2S,4R)-1-[(2R)-2-[3-[[(3S,8S)-8-[[4-(3,8-diazabicyclo[3.2.1]octan-3-yl)-7-(8-ethynyl-7-fluoro-3-hydroxy-1-naphthyl)-8-fluoro-pyrido[4,3-d]pyrimidin-2-yl]oxymethyl]-1,2,3,5,6,7-hexahydropyrrolizin-3-yl]methoxy]isoxazol-5-yl]-3-methyl-butanoyl]-4-hydroxy-N-[(1S)-1-[4-(4-methylthiazol-5-yl)phenyl]ethyl]pyrrolidine-2-carboxamide] | 80 to 100% | < 600 nM
C#Cc1c(F)ccc2cc(O)cc(-c3ncc4c(N5CC6CCC(C5)N6)nc(OC[C@@]56CCCN5[C@H](COc5cc([C@@H](C(=O)N7C[C@H](O)C[C@H]7C(=O)N[C@@H](C)c7ccc(-c8scnc8C)cc7)C(C)C)on5)CC6)nc4c3F)c12 [Compound 315, (2S,4R)-1-[(2S)-2-[3-[[(3S,8S)-8-[[4-(3,8-diazabicyclo[3.2.1]octan-3-yl)-7-(8-ethynyl-7-fluoro-3-hydroxy-1-naphthyl)-8-fluoro-pyrido[4,3-d]pyrimidin-2-yl]oxymethyl]-1,2,3,5,6,7-hexahydropyrrolizin-3-yl]methoxy]isoxazol-5-yl]-3-methyl-butanoyl]-4-hydroxy-N-[(1S)-1-[4-(4-methylthiazol-5-yl)phenyl]ethyl]pyrrolidine-2-carboxamide] | – | > 3000 nM
C#Cc1c(F)ccc2cccc(-c3ncc4c(N5CC6CCC(C5)N6)nc(OC[C@]56CCCN5[C@H](COc5cc([C@H](C(=O)N7C[C@H](O)C[C@H]7C(=O)N[C@@H](C)c7ccc(-c8scnc8C)cc7)C(C)C)on5)CC6)nc4c3F)c12 [Compound 316, (2S,4R)-1-[(2S)-2-[3-[[(3S,8R)-8-[[4-(3,8-diazabicyclo[3.2.1]octan-3-yl)-7-(8-ethynyl-7-fluoro-1-naphthyl)-8-fluoro-pyrido[4,3-d]pyrimidin-2-yl]oxymethyl]-1,2,3,5,6,7-hexahydropyrrolizin-3-yl]methoxy]isoxazol-5-yl]-3-methyl-butanoyl]-4-hydroxy-N-[(1S)-1-[4-(4-methylthiazol-5-yl)phenyl]ethyl]pyrrolidine-2-carboxamide] | 20 to 60% | < 600 nM
C#Cc1c(F)ccc2cccc(-c3ncc4c(N5CC6CCC(C5)N6)nc(OC[C@]56CCCN5[C@H](COc5cc([C@@H](C(=O)N7C[C@H](O)C[C@H]7C(=O)N[C@@H](C)c7ccc(-c8scnc8C)cc7)C(C)C)on5)CC6)nc4c3F)c12 [Compound 317, (2S,4R)-1-[(2R)-2-[3-[[(3S,8R)-8-[[4-(3,8-diazabicyclo[3.2.1]octan-3-yl)-7-(8-ethynyl-7-fluoro-1-naphthyl)-8-fluoro-pyrido[4,3-d]pyrimidin-2-yl]oxymethyl]-1,2,3,5,6,7-hexahydropyrrolizin-3-yl]methoxy]isoxazol-5-yl]-3-methyl-butanoyl]-4-hydroxy-N-[(1S)-1-[4-(4-methylthiazol-5-yl)phenyl]ethyl]pyrrolidine-2-carboxamide] | 80 to 100% | < 600 nM
CCc1cccc2cc(O)cc(-c3ncc4c(N5CC6CCC(C5)N6)nc(OC[C@]56CCCN5C[C@H](Oc5cc([C@H](C(=O)N7C[C@H](O)C[C@H]7C(=O)N[C@@H](C)c7ccc(-c8scnc8C)cc7)C(C)C)on5)CC6)nc4c3F)c12 [Compound 318, (2S,4R)-1-[(2R)-2-[3-[[(6R,8aR)-8a-[[4-(3,8-diazabicyclo[3.2.1]octan-3-yl)-7-(8-ethyl-3-hydroxy-1-naphthyl)-8-fluoro-pyrido[4,3-d]pyrimidin-2-yl]oxymethyl]-2,3,5,6,7,8-hexahydro-1H-indolizin-6-yl]oxy]isoxazol-5-yl]-3-methyl-butanoyl]-4-hydroxy-N-[(1S)-1-[4-(4-methylthiazol-5-yl)phenyl]ethyl]pyrrolidine-2-carboxamide] | 20 to 60% | 1000 to 3000 nM
CCc1cccc2cc(O)cc(-c3ncc4c(N5CC6CCC(C5)N6)nc(OC[C@]56CCCN5C[C@H](Oc5cc([C@@H](C(=O)N7C[C@H](O)C[C@H]7C(=O)N[C@@H](C)c7ccc(-c8scnc8C)cc7)C(C)C)on5)CC6)nc4c3F)c12 [Compound 319, (2S,4R)-1-[(2S)-2-[3-[[(6R,8aR)-8a-[[4-(3,8-diazabicyclo[3.2.1]octan-3-yl)-7-(8-ethyl-3-hydroxy-1-naphthyl)-8-fluoro-pyrido[4,3-d]pyrimidin-2-yl]oxymethyl]-2,3,5,6,7,8-hexahydro-1H-indolizin-6-yl]oxy]isoxazol-5-yl]-3-methyl-butanoyl]-4-hydroxy-N-[(1S)-1-[4-(4-methylthiazol-5-yl)phenyl]ethyl]pyrrolidine-2-carboxamide] | 60 to 80% | 1000 to 3000 nM
Cc1ncsc1-c1ccc([C@H](C)NC(=O)[C@@H]2C[C@@H](O)CN2C(=O)[C@H](c2cc(OC3CN(C(=O)OC[C@@H]4CC[C@@]5(COc6nc(N7CC8CCC(C7)N8)c7cnc(-c8cc(O)cc(Cl)c8C8CC8)c(F)c7n6)CCCN45)C3)no2)C(C)C)cc1 [Compound 322] | 60 to 80% | 600 to 1000 nM
CCc1cccc2cc(O)cc(-c3ncc4c(N5CC6CCC(C5)N6)nc(OC[C@]56CCCN5[C@H](COc5cc([C@H](C(=O)N7C[C@H](O)C[C@H]7C(=O)N[C@@H](C)c7ccc(-c8scnc8C)cc7)C(C)C)on5)CC6)nc4c3F)c12 [Compound 323, (2S,4R)-1-[(2R)-2-(3-{[(3S,7aR)-7a-{[(4-{3,8-diazabicyclo[3.2.1]octan-3-yl}-7-(8-ethyl-3-hydroxynaphthalen-1-yl)-8-fluoropyrido[4,3-d]pyrimidin-2-yl)oxy]methyl}-hexahydro-1H-pyrrolizin-3-yl]methoxy}-1,2-oxazol-5-yl)-3-methylbutanoyl]-4-hydroxy-N-[(1S)-1-[4-(4-methyl-1,3-thiazol-5-yl)phenyl]ethyl]pyrrolidine-2-carboxamide] | 60 to 80% | –
CCc1cccc2cc(O)cc(-c3ncc4c(N5CC6CCC(C5)N6)nc(OC[C@]56CCCN5[C@H](COc5cc([C@@H](C(=O)N7C[C@H](O)C[C@H]7C(=O)N[C@@H](C)c7ccc(-c8scnc8C)cc7)C(C)C)on5)CC6)nc4c3F)c12 [Compound 324, (2S,4R)-1-[(2S)-2-(3-{[(3S,7aR)-7a-{[(4-{3,8-diazabicyclo[3.2.1]octan-3-yl}-7-(8-ethyl-3-hydroxynaphthalen-1-yl)-8-fluoropyrido[4,3-d]pyrimidin-2-yl)oxy]methyl}-hexahydro-1H-pyrrolizin-3-yl]methoxy}-1,2-oxazol-5-yl)-3-methylbutanoyl]-4-hydroxy-N-[(1S)-1-[4-(4-methyl-1,3-thiazol-5-yl)phenyl]ethyl]pyrrolidine-2-carboxamide] | 80 to 100% | –
